Source: US20130109698A1, “Small Molecule Inhibitors of Functions of the HIV-1 Matrix Protein” (priority 2010, published 2013)
pIC50: −log10 of the molar value. Read-outs that look alike come from different tables or passages of the source.

Tests used:
SIV MAC251 = test: Antiviral efficacy in PBMCs, reverse transcriptase activity; type: cell-based
[1] = Compound cytotoxicity in PBMCs (MTS); type: cell-based, human; conditions: human, read-out: TC50
Experimental: (§1) HIV human peripheral blood mononuclear cell (PBMC) assays were performed as described previously (Lanier et al., 2010, Antimicrob Agents Chemother 54:2901-2909 and Ptak et al., 2008, Antimicrob Agents Chemother 52:1302-1317). Briefly, fresh PBMCs, seronegative for HIV and hepatitis B virus (HBV), were isolated from blood samples of the screened donors (Biological Specialty Corporation, Colmar, Pa.) by using lymphocyte separation medium (LSM; density, 1.078±0.002 g/ml; Cellgro; Mediatech, Inc.) by following the manufacturer's instructions. Cells were stimulated by incubation in 4 μg/mL phytohemagglutinin (PHA; Sigma) for 48 to 72 h. Mitogenic stimulation was maintained by the addition of 20 U/mL recombinant human interleukin-2 (rhIL-2; R&D Systems, Inc.) to the culture medium. PHA-stimulated PBMCs from at least two donors were pooled, diluted in fresh medium, and added to 96-well plates at 5×10^4 cells/well. Cells were infected (final multiplicity of infection [MOI] of ≅0.1) in the presence of nine different concentrations of test compounds (triplicate wells/concentration) and incubated for 7 days. To determine the level of virus inhibition, cell-free supernatant samples were collected for analysis of reverse transcriptase activity (Buckheit et al., 1991, AIDS Res Hum Retroviruses 7:295-302). Following removal of supernatant samples, compound cytotoxicity was measured by the addition of 3-(4,5-dimethylthiazol-2-yl)-5-(3-carboxymethoxy-phenyl)-2-(4-sulfophenyl)-2H-tetrazolium (MTS; CellTiter 96 reagent; Promega) by following the manufacturer's instructions.

HIV-1 92BR030 = test: Anti-HIV efficacy in human PBMCs, reverse transcriptase activity; type: cell-based; conditions: HIV-1 92BR030, PBMCs
Experimental: as §1

HIV-1 93IN101 = test: as above; type: cell-based; conditions: HIV-1 93IN101, PBMCs
Experimental: as §1

[2] = tested on: luciferase-reporter HIV-1 NL4-3 pseudotyped with HxBc2 envelope produced in 293T cells; test: microbe, parasite or virus in culture
HIV-1 NL4-3 = test: Antiviral activity of additional compounds (Tables 6 and 7); type: cell-based; conditions: for pIC50 / IC90: Human immunodeficiency virus 1, NL43
Experimental: as §1

HIV-1 Ba-L = test: as above; type: cell-based; conditions: for pIC50 / IC90: Human immunodeficiency virus 1, BAL
Experimental: as §1

HIV-1 MA = target: T1, HIV-1 MA (Human immunodeficiency virus type 1 group M subtype B, UniProt P03348); test: Surface plasmon resonance direct binding to immobilized HIV-1 MA; conditions: CM7 sensor chip, 10 μM (FIG. 14)
T1 construct: His6 (N, cleaved yes); SUMO (N, cleaved yes); made in house; host or cells: Escherichia coli BL21 (DE3) Codon+-RIL
Excerpt: An assay was devised to monitor the interactions of small-molecule compounds to HIV-1 MA using SPR. In this assay, HIV-1LA1 MA was immobilized to the flow cells of a CM5 sensor chip to high density (˜1.3 kRU) or a CM7 sensor chip to high density (19 kRU) using standard amine coupling. A reference surface was similarly created by immobilizing the SUMO protein or a nonspecific antibody ARC4033 (antimouse/rat interferon-γ: BioSource). In small-molecule assays, the buffering system used is important due to the low responses obtained in binding assays. […] A stock solution of the MTI compounds was prepared by dissolving in 100% dimethyl sulfoxide (DMSO) to a final concentration of 10 mM.
To prepare the sample for analysis, 30 μL of the stock solution of the compound of the invention was added to sample preparation buffer (PBS, pH 7.2) to a final volume of 1 mL and mixed thoroughly. Preparation of analyte in this manner ensured that the concentration of DMSO was matched with that of running buffer with 3% DMSO. Lower concentrations of each compound were then prepared by two-fold serial dilutions into running buffer (PBS, 3% DMSO, pH 7.2). These compound dilutions were then injected over the control and MA surfaces at a flow rate of 30 μL min^−, for a 4-min association phase, followed by a 5-min dissociation phase.
In one aspect, owing to the relatively fast dissociation rates of these compounds, regeneration of these surfaces was accomplished by extensive washing of the system followed by a 5 min wait phase, a second wash, and a final 15 min wait phase. To secure complete regeneration, a buffer injection (5 min^on/5 min^off) was performed before each subsequent injection of compound.
Response to a small-molecule compound (NBD-556) specific for HIV-1 gp120 was also monitored to ensure specificity.
Data analysis was performed using BIAEvaluation 4.0 software (GE Healthcare). The responses of a buffer injection and responses from the ARC4033-immobilized reference cell were subtracted to account for nonspecific binding. The average maximum response was generated from a minimum of 3 data sets and was used to define the standard deviation for each compound binding to the HIV-1 MA protein.
The MTI compounds are predicted to interact with HIV-1 MA and thereby disrupt its functioning during the HIV-1 replication cycle. However, it is possible that a compound might exert its action via another mechanism not involving MA. Therefore, studies were performed to determine that the MTI compounds are directed against HIV-1 MA. The direct interaction of compounds CMPD-18, CMPD-17, CMPD-7, and CMPD-14 with HIV-1 MA was assayed using surface plasmon resonance interaction analyses. Wild-type HIV-1 MA protein was overproduced in E. coli using the pETHSUL expression system and purified using successive IMAC strategies, followed by an ion exchange chromatographic step as outlined in Materials and Methods. FIG. 6 illustrates the purification profile of HIV-1 MA. The purified MA was then immobilized onto the surface of a high-capacity CM7 sensor chip. Similarly, the monoclonal antibody ARC4033 (antimouse/rat interferon-γ; BioSource, Invitrogen, Carlsbad, Calif.) was immobilized on a CM7 sensor chip and was used to correct for background binding and instrument and buffer artifacts.

[3] = Simian immunodeficiency virus, PBMC
[4] = Human immunodeficiency virus 1, PBMC

COc1ccccc1-c1noc(=O)n1-c1cccc(C(F)(F)F)c1 [ITI-367, 3-(2-methoxyphenyl)-4-[3-trifluoromethyl-phenyl]-1,2,4-oxadiazol-5-one, reference compound]
Antiviral index (TC50/IC50) (SIV MAC251): >1.33 | pIC50 (SIV MAC251; [3]): 4.13 | IC90 (SIV MAC251; [3]): > 100 µM | CC50 at 7 days ([1]; Table 4 study, PBMCs): > 100 µM | Antiviral index (TC50/IC50) (HIV-1 92BR030): >2.13 | pIC50 (HIV-1 92BR030; [4]): 4.33 | IC90 (HIV-1 92BR030; [4]): > 100 µM | Antiviral index (TC50/IC50) (HIV-1 93IN101): >2.39 | pIC50 (HIV-1 93IN101; [4]): 4.38 | IC90 (HIV-1 93IN101; [4]): 96 µM

COc1c(Cl)cc(C(=O)N2CCN(Cc3nc(-c4ccc(C)cc4)no3)CC2)cc1Cl [CMPD-3, (3,5-dichloro-4-methoxyphenyl)(4-((3-(p-tolyl)-1,2,4-oxadiazol-5-yl)methyl)piperazin-1-yl)methanone]
pIC50 [2]: < 4.00

O=C(CNC(=O)COc1ccc(Cl)cc1)NCc1ccc(C(=O)N2CCCCC2)cc1 [CMPD-46, 2-(4-chlorophenoxy)-N-(2-oxo-2-((4-(piperidine-1-carbonyl)benzyl)amino)ethyl)acetamide]
Antiviral index (TC50/IC50) (HIV-1 NL4-3): > 1.28 | pIC50 (HIV-1 NL4-3): 4.11 | IC90 (HIV-1 NL4-3): > 100 µM | Antiviral index (TC50/IC50) (HIV-1 Ba-L): > 1.38 | pIC50 (HIV-1 Ba-L): 4.14 | IC90 (HIV-1 Ba-L): > 100 µM | CC50 at 7 days ([1]; Tables 6 and 7 study): > 100 µM

O=C(CNC(=O)COc1ccccc1)NCc1ccccc1 [CMPD-38, N-benzyl-2-(2-phenoxyacetamido)acetamide]
pIC50 (HIV-1 NL4-3): < 4.00 | IC90 (HIV-1 NL4-3): > 100 µM | pIC50 (HIV-1 Ba-L): < 4.00 | IC90 (HIV-1 Ba-L): > 100 µM | CC50 at 7 days ([1]; Tables 6 and 7 study): > 100 µM

CN1CCN(C(=O)c2ccc(CNC(=O)CNC(=O)COc3ccccc3)cc2)CC1 [CMPD-40, N-(4-(4-methylpiperazine-1-carbonyl)benzyl)-2-(2-phenoxyacetamido)acetamide]
pIC50 (HIV-1 NL4-3): < 4.00 | IC90 (HIV-1 NL4-3): > 100 µM | pIC50 (HIV-1 Ba-L): < 4.00 | IC90 (HIV-1 Ba-L): > 100 µM | CC50 at 7 days ([1]; Tables 6 and 7 study): > 100 µM

CN1CCN(C(=O)c2ccc(CNC(=O)CNC(=O)COc3ccc(C(F)(F)F)cc3)cc2)CC1 [CMPD-44, N-(4-(4-methylpiperazine-1-carbonyl)benzyl)-2-(2-(4-(trifluoromethyl)phenoxy)acetamido)acetamide]
pIC50 (HIV-1 NL4-3): < 4.00 | IC90 (HIV-1 NL4-3): > 100 µM | pIC50 (HIV-1 Ba-L): < 4.00 | IC90 (HIV-1 Ba-L): > 100 µM | CC50 at 7 days ([1]; Tables 6 and 7 study): > 100 µM

O=C(CNC(=O)COc1ccccc1)NCc1ccc(Cl)cc1 [CMPD-35, N-(4-chlorobenzyl)-2-(2-phenoxyacetamido)acetamide]
pIC50 (HIV-1 NL4-3): < 4.00 | IC90 (HIV-1 NL4-3): > 100 µM | pIC50 (HIV-1 Ba-L): < 4.00 | IC90 (HIV-1 Ba-L): > 100 µM | CC50 at 7 days ([1]; Tables 6 and 7 study): > 100 µM

CC1(C)CC(NC(=O)C(=O)Nc2ccc(Cl)cc2)CC(C)(C)N1 [NBD-556, N-(4-chlorophenyl), —N′-(2,2,6,6-tetramethylpiperidin-4-yl)-oxalamide, reference compound]
direct interaction with sensor chip-immobilized HIV-1 MA (HIV-1 MA): no such interaction

COc1ccc(OCC(=O)NCC(=O)NCc2ccc(C(=O)N3CCCCC3)cc2)cc1 [CMPD-47, 2-(4-methoxyphenoxy)-N-(2-oxo-2-((4-(piperidine-1-carbonyl)benzyl)amino)ethyl)acetamide]
Antiviral index (TC50/IC50) (HIV-1 NL4-3): 1.39 | pIC50 (HIV-1 NL4-3): 4.28 | IC90 (HIV-1 NL4-3): 92.7 µM | Antiviral index (TC50/IC50) (HIV-1 Ba-L): 1.44 | pIC50 (HIV-1 Ba-L): 4.29 | IC90 (HIV-1 Ba-L): 96.1 µM | CC50 at 7 days ([1]; Tables 6 and 7 study): 73.1 µM

COc1ccc(OCC(=O)NCC(=O)NCc2ccc(C(=O)N3CCN(C)CC3)cc2)cc1 [CMPD-43, 2-(4-methoxyphenoxy)-N-(2-((4-(4-methylpiperazine-1-carbonyl)benzyl)amino)-2-oxoethyl)acetamide]
pIC50 (HIV-1 NL4-3): < 4.00 | IC90 (HIV-1 NL4-3): > 100 µM | pIC50 (HIV-1 Ba-L): < 4.00 | IC90 (HIV-1 Ba-L): > 100 µM | CC50 at 7 days ([1]; Tables 6 and 7 study): > 100 µM

COc1ccc(CNC(=O)CNC(=O)COc2ccccc2)cc1 [CMPD-36, N-(4-methoxybenzyl)-2-(2-phenoxyacetamido)acetamide]
pIC50 (HIV-1 NL4-3): < 4.00 | IC90 (HIV-1 NL4-3): > 100 µM | pIC50 (HIV-1 Ba-L): < 4.00 | IC90 (HIV-1 Ba-L): > 100 µM | CC50 at 7 days ([1]; Tables 6 and 7 study): > 100 µM

CC(=O)NCC(=O)NCc1ccc(C(=O)N2CCCCC2)cc1 [CMPD-45, 2-acetamido-N-(4-(piperidine-1-carbonyl)benzyl)acetamide]
pIC50 (HIV-1 NL4-3): < 4.00 | IC90 (HIV-1 NL4-3): > 100 µM | pIC50 (HIV-1 Ba-L): < 4.00 | IC90 (HIV-1 Ba-L): > 100 µM | CC50 at 7 days ([1]; Tables 6 and 7 study): > 100 µM

O=C(CNC(=O)COc1ccccc1)NCc1cccc(Cl)c1 [CMPD-39, N-(3-chlorobenzyl)-2-(2-phenoxyacetamido)acetamide]
pIC50 (HIV-1 NL4-3): < 4.00 | IC90 (HIV-1 NL4-3): > 100 µM | pIC50 (HIV-1 Ba-L): < 4.00 | IC90 (HIV-1 Ba-L): > 100 µM | CC50 at 7 days ([1]; Tables 6 and 7 study): > 100 µM

O=C(CNC(=O)COc1ccc(C(F)(F)F)cc1)NCc1ccc(C(=O)N2CCCCC2)cc1 [CMPD-48, N-(2-oxo-2-((4-(piperidine-1-carbonyl)benzyl)amino)ethyl)-2-(4-(trifluoromethyl)phenoxy)acetamide]
Antiviral index (TC50/IC50) (HIV-1 NL4-3): > 4.45 | pIC50 (HIV-1 NL4-3): 4.65 | IC90 (HIV-1 NL4-3): > 100 µM | Antiviral index (TC50/IC50) (HIV-1 Ba-L): > 4.86 | pIC50 (HIV-1 Ba-L): 4.69 | IC90 (HIV-1 Ba-L): > 100 µM | CC50 at 7 days ([1]; Tables 6 and 7 study): > 100 µM

CC(=O)NCC(=O)NCc1ccc(C(=O)N2CCN(C)CC2)cc1 [CMPD-41, 2-acetamido-N-(4-(4-methylpiperazine-1-carbonyl)benzyl)acetamide]
pIC50 (HIV-1 NL4-3): < 4.00 | IC90 (HIV-1 NL4-3): > 100 µM | pIC50 (HIV-1 Ba-L): < 4.00 | IC90 (HIV-1 Ba-L): > 100 µM | CC50 at 7 days ([1]; Tables 6 and 7 study): > 100 µM

O=C(CNC(=O)COc1ccccc1)NCc1ccc(C(F)(F)F)cc1 [CMPD-37, N-(2-oxo-2-((4-(trifluoromethyl)benzyl)amino)ethyl)-2-phenoxyacetamide]
pIC50 (HIV-1 NL4-3): < 4.00 | IC90 (HIV-1 NL4-3): > 100 µM | pIC50 (HIV-1 Ba-L): < 4.00 | IC90 (HIV-1 Ba-L): > 100 µM | CC50 at 7 days ([1]; Tables 6 and 7 study): > 100 µM

CN1CCN(C(=O)c2ccc(CNC(=O)CNC(=O)COc3ccc(Cl)cc3)cc2)CC1 [CMPD-42, 2-(4-chlorophenoxy)-N-(2-((4-(4-methylpiperazine-1-carbonyl)benzyl)amino)-2-oxoethyl)acetamide]
pIC50 (HIV-1 NL4-3): < 4.00 | IC90 (HIV-1 NL4-3): > 100 µM | pIC50 (HIV-1 Ba-L): < 4.00 | IC90 (HIV-1 Ba-L): > 100 µM | CC50 at 7 days ([1]; Tables 6 and 7 study): > 100 µM
